Data published in US20240383915A1, “OXAZEPINE COMPOUNDS AND USES THEREOF IN THE TREATMENT OF CANCER” (Genentech, Inc., priority 2021, published 2024).

Tests used:
KRas(G12V) = KRas(G12V) (Homo sapiens (Human), UniProt P01116, G12V); experiment: KRas(G12V) GDP HTRF (BODIPY-GDP exchange TR-FRET); assay type: biochemical
KRas = KRas (Homo sapiens (Human), UniProt P01116); experiment: KRas GDP HTRF (BODIPY-GDP exchange TR-FRET); assay type: biochemical
Protocol: KRAS Biochemical Assay—BODIPY-GDP Exchange TR-FRET. Biochemical compound potencies were assessed by evaluating inhibition of SOS1-mediated nucleotide exchange in KRAS G12D. The SOS1-promoted exchange of fluorescently-labeled GDP (BODIPY-GDP) was monitored by time-resolved fluorescence resonance energy transfer (TR-FRET). Compounds solubilized in DMSO were dispensed as concentration series into 384-well white assay plates. […] The reaction was initiated with the addition of 5 μL of 3 nM recombinant human SOS1 and 300 nM BODIPY-GDP in assay buffer. After a 60-minute incubation, the fluorescence was measured with excitation at 337 nm and emission at 490 and 520 nm. The TR-FRET ratio was determined as the fluorescence at 520 nm divided by the fluorescence at 490 nm multiplied by 10,000. […] The normalized TR-FRET results were plotted against compound concentration, and the data fit to a 4-parameter Hill equation to determine the IC50 values.

Sequence of KRas (P01116-2 other isoform, or with tags, fused parts or gaps): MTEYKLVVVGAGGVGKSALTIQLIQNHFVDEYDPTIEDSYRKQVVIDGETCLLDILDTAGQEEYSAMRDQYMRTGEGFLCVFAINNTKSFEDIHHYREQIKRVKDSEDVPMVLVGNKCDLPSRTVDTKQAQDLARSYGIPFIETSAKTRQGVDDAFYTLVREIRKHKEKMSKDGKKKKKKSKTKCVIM
Sequence of KRas(G12V) (P01116-2 other isoform, or with tags, fused parts or gaps G12V): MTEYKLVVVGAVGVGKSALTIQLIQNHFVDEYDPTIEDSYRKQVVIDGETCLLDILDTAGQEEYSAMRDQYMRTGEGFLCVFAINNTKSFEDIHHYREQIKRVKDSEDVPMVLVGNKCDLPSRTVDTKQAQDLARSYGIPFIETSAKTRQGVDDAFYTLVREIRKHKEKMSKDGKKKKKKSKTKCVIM

Structure (SMILES)	IC50 (KRas(G12V)) [nM]	IC50 (KRas) [nM]
Cc1cc(N)nc(-c2cc3ncnc4c3c(c2Cl)OCCN4Cc2cc(F)cnc2N)c1C(F)(F)F [Example 31, 6-(4-((2-amino-5-fluoropyridin-3-yl)methyl)-8-chloro-5,6-dihydro-4H-[1,4]oxazepino[5,6,7-de]quinazolin-9-yl)-4-methyl-5-(trifluoromethyl)pyridin-2-amine]	440	2800
Cc1cc(N)nc(-c2c(Cl)c3c4c(nc(OC[C@@H]5CC[C@H]6COCCN65)nc4c2F)N([C@H](C)c2cncc(N)c2)CCO3)c1C(F)(F)F (single isomer, unassigned) [Example 69a]	0.11	0.295
Cc1cc(N)nc(-c2c(Cl)c3c4c(nc(OCC56C[C@@H](F)CN5C[C@H](F)C6)nc4c2F)N([C@H](C)c2cccnc2N)CCO3)c1C(F)(F)F (atropisomer, axis not shown) [Example 98a, 6-((R)-4-((R)-1-(2-aminopyridin-3-yl)ethyl)-8-chloro-2-(((2R,6R)-2,6-difluorotetrahydro-1H-pyrrolizin-7a(5H)-yl)methoxy)-10-fluoro-5,6-dihydro-4H-[1,4]oxazepino[5,6,7-de]quinazolin-9-yl)-4-methyl-5-(trifluoromethyl)pyridin-2-amine]	0.11	0.557
Cc1cc(N)nc(-c2cc3ncnc4c3c(c2Cl)OCCN4CCC#N)c1C(F)(F)F [Example 13, 3-(9-(6-amino-4-methyl-3-(trifluoromethyl)pyridin-2-yl)-8-chloro-5,6-dihydro-4H-[1,4]oxazepino[5,6,7-de]quinazolin-4-yl)propanenitrile]	13000	36000
Cc1cc(N)nc(-c2c(Cl)c3c4c(nc(OC[C@]56CCCN5CCOC6)nc4c2F)N([C@H](C)c2cccnc2N)CCO3)c1C(F)(F)F (atropisomer, axis not shown) [Example 128a, 6-((R)-4-((R)-1-(2-aminopyridin-3-yl)ethyl)-8-chloro-10-fluoro-2-(((R)-tetrahydro-1H-pyrrolo[2,1-c][1,4]oxazin-8a(6H)-yl)methoxy)-5,6-dihydro-4H-[1,4]oxazepino[5,6,7-de]quinazolin-9-yl)-4-methyl-5-(trifluoromethyl)pyridin-2-amine]	0.09	0.149
Cc1cc(N)nc(-c2c(Cl)c3c4c(nc(OC[C@@]56CCCN5C[C@H](F)C6)nc4c2F)N([C@H](C)c2cc(Cl)cnc2N)CCO3)c1C(F)(F)F [Example 131, 6-(4-((R)-1-(2-amino-5-chloropyridin-3-yl)ethyl)-8-chloro-10-fluoro-2-(((2R,7aS)-2-fluorotetrahydro-1H-pyrrolizin-7a(5H)-yl)methoxy)-5,6-dihydro-4H-[1,4]oxazepino[5,6,7-de]quinazolin-9-yl)-4-methyl-5-(trifluoromethyl)pyridin-2-amine]	0.14	0.253
Cc1cc(N)nc(-c2cc3ncnc4c3c(c2Cl)OCCN4Cc2cccnc2)c1C(F)(F)F [Example 46, 6-(8-chloro-4-(pyridin-3-ylmethyl)-5,6-dihydro-4H-[1,4]oxazepino[5,6,7-de]quinazolin-9-yl)-4-methyl-5-(trifluoromethyl)pyridin-2-amine]	11000	46000
Cc1cc(N)nc(-c2c(Cl)c3c4c(nc(OC[C@H]5COCCN5)nc4c2F)N([C@H](C)c2cccnc2N)CCO3)c1C(F)(F)F (atropisomer, axis not shown) [Example 97, 6-((R)-4-((R)-1-(2-aminopyridin-3-yl)ethyl)-8-chloro-10-fluoro-2-(((R)-morpholin-3-yl)methoxy)-5,6-dihydro-4H-[1,4]oxazepino[5,6,7-de]quinazolin-9-yl)-4-methyl-5-(trifluoromethyl)pyridin-2-amine]	0.08	0.359
Cc1cc(N)nc(-c2c(Cl)c3c4c(nc(OC[C@]56CCCN5CC(F)(F)C6)nc4c2F)N([C@H](C)c2nccnc2N)CCO3)c1C(F)(F)F (atropisomer, axis not shown) [Example 166b, 3-((R)-1-((S)-9-(6-amino-4-methyl-3-(trifluoromethyl)pyridin-2-yl)-8-chloro-2-(((R)-2,2-difluorotetrahydro-1H-pyrrolizin-7a(5H)-yl)methoxy)-10-fluoro-5,6-dihydro-4H-[1,4]oxazepino[5,6,7-de]quinazolin-4-yl)ethyl)pyrazin-2-amine]	640	1730
Cc1cc(N)nc(-c2cc3ncnc4c3c(c2Cl)OCCN4C2CCc3c(N)cncc32)c1C(F)(F)F (stereo not shown) [Example 37, 7-(9-(6-amino-4-methyl-3-(trifluoromethyl)pyridin-2-yl)-8-chloro-5,6-dihydro-4H-[1,4]oxazepino[5,6,7-de]quinazolin-4-yl)-6,7-dihydro-5H-cyclopenta[c]pyridin-4-amine]	53	270
Cc1cc(N)nc(-c2cc3ncnc4c3c(c2Cl)OCCN4Cc2c(C(F)F)ccnc2N)c1C(F)(F)F [Example 57, 6-(4-((2-amino-4-(difluoromethyl)pyridin-3-yl)methyl)-8-chloro-5,6-dihydro-4H-[1,4]oxazepino[5,6,7-de]quinazolin-9-yl)-4-methyl-5-(trifluoromethyl)pyridin-2-amine]	270	2000
Cc1cc(N)nc(-c2cc3ncnc4c3c(c2Cl)OCCN4C2CCc3ccncc32)c1C(F)(F)F (stereo not shown) [Example 21, 6-(8-chloro-4-(6,7-dihydro-5H-cyclopenta[c]pyridin-7-yl)-5,6-dihydro-4H-[1,4]oxazepino[5,6,7-de]quinazolin-9-yl)-4-methyl-5-(trifluoromethyl)pyridin-2-amine]	1600	3400
Cc1cc(N)nc(-c2cc3ncnc4c3c(c2Cl)OCCN4Cc2cncc(O)c2)c1C(F)(F)F [Example 9, 5-((9-(6-amino-4-methyl-3-(trifluoromethyl)pyridin-2-yl)-8-chloro-5,6-dihydro-4H-[1,4]oxazepino[5,6,7-de]quinazolin-4-yl)methyl)pyridin-3-ol]	10000	63000
Cc1cc(N)nc(-c2cc3ncnc4c3c(c2Cl)OCCN4Cc2ccns2)c1C(F)(F)F [Example 22, 6-(8-chloro-4-(isothiazol-5-ylmethyl)-5,6-dihydro-4H-[1,4]oxazepino[5,6,7-de]quinazolin-9-yl)-4-methyl-5-(trifluoromethyl)pyridin-2-amine]	11000	43000
Cc1cc(N)nc(-c2cc3ncnc4c3c(c2Cl)OCCN4Cc2scnc2N)c1C(F)(F)F [Example 25, 5-((9-(6-amino-4-methyl-3-(trifluoromethyl)pyridin-2-yl)-8-chloro-5,6-dihydro-4H-[1,4]oxazepino[5,6,7-de]quinazolin-4-yl)methyl)thiazol-4-amine]	510	2000
Cc1cc(N)nc(-c2c(Cl)c3c4c(nc(OC[C@@H]5CCCN5CC(F)F)nc4c2F)N([C@H](C)c2cncnc2N)CCO3)c1C(F)(F)F (atropisomer, axis not shown) [Example 103a, 5-((R)-1-((R)-9-(6-amino-4-methyl-3-(trifluoromethyl)pyridin-2-yl)-8-chloro-2-(((S)-1-(2,2-difluoroethyl)pyrrolidin-2-yl)methoxy)-10-fluoro-5,6-dihydro-4H-[1,4]oxazepino[5,6,7-de]quinazolin-4-yl)ethyl)pyrimidin-4-amine]	–	1.13
